Common to all, as to format: in vitro ADME
In one series the target is T1, rUGT2B7 (Homo sapiens, UniProt P16662).
T1 construct: purchased Corning (Woburn, MA, USA)
T1 sequence (P16662 24-529): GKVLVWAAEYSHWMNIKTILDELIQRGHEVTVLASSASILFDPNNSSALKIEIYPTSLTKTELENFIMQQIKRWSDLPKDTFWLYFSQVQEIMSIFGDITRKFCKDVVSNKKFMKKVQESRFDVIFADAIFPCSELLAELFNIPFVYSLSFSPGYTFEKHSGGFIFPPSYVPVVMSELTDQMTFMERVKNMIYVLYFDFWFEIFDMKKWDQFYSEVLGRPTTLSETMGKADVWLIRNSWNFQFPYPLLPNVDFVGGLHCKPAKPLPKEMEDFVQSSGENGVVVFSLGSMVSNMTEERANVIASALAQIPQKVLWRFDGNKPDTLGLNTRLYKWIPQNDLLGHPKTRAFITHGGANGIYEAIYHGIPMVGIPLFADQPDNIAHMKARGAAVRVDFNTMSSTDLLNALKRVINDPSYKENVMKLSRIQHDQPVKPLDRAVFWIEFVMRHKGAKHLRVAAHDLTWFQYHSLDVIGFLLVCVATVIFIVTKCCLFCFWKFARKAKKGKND
Kind of series: UGT phenotyping of GL-V9 glucuronidation, rUGT2B7. The conditions noted are these: GL-V9 0.5, 1, 5 μM, 37 °C, 1 h. On the procedure: (§1) The composition of the incubation system (200 μL) contained liver microsomes of different species (0.1 mg protein/mL), 5 mM saccharolactone (D-saccharic acid 1,4-lactone monohydrate), 10 mM MgCl2, alamethicin (50 μg/mg protein), Tris-HCl buffer (50 mM, pH 7.4) and GL-V9 (1 μM). After 5 min of preincubation at 37 °C, UDPGA (5 mM) was added to initiate the phase II reaction. Control incubation samples were performed without UDPGA or without substrates (GL-V9). The reaction was terminated by addition of ice-cold methanol (three volumes) after incubation for 1 h at 37 °C. Samples were vortexed, centrifuged at 21,500× g for 10 min and then stored at 4 °C until HPLC-UV-TripleTOF analysis. To confirm that these metabolites are conjugates resulting from glucuronidation reaction, enzymatic hydrolysis of samples was processed. β-glucuronidase (100 KU, Sigma) was added and the hydrolysis was performed overnight at 37 °C. The control samples were carried out without β-glucuronidase under the same condition.
(§2) Twelve human recombinant UGT isoforms (rUGT1A1, rUGT1A3, rUGT1A4, rUGT1A6, rUGT1A7, rUGT1A8, rUGT1A9, rUGT1A10, rUGT2B4, rUGT2B7, rUGT2B15, and rUGT2B17) were employed to identify the main UGT enzyme(s) responsible for glucuronidation of GL-V9 under mixture conditions as described in Section 4.3. […]

In the next series the target is T2, rUGT1A6 (Homo sapiens, UniProt P19224).
T2 construct: purchased Corning (Woburn, MA, USA)
T2 sequence (P19224 27-532): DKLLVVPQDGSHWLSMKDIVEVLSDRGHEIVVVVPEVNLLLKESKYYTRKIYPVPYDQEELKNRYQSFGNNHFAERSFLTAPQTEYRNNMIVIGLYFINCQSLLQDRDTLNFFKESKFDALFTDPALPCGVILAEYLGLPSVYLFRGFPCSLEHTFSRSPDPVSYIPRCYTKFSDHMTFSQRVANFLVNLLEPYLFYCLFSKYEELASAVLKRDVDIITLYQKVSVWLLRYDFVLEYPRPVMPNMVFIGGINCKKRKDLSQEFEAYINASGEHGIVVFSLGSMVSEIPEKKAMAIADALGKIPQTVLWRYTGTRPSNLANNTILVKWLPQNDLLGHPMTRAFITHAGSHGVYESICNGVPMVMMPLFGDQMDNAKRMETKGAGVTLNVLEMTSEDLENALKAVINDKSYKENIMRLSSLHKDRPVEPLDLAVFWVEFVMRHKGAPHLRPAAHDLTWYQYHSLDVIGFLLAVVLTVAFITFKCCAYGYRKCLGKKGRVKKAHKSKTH
In words: UGT phenotyping of GL-V9 glucuronidation, rUGT1A6. The conditions noted are these: GL-V9 0.5, 1, 5 μM, 37 °C, 1 h. On the procedure: as §1, §2

For a further series, the target named is T3, rUGT1A9 (Homo sapiens, UniProt O60656).
T3 construct: purchased Corning (Woburn, MA, USA)
T3 sequence (O60656 26-530): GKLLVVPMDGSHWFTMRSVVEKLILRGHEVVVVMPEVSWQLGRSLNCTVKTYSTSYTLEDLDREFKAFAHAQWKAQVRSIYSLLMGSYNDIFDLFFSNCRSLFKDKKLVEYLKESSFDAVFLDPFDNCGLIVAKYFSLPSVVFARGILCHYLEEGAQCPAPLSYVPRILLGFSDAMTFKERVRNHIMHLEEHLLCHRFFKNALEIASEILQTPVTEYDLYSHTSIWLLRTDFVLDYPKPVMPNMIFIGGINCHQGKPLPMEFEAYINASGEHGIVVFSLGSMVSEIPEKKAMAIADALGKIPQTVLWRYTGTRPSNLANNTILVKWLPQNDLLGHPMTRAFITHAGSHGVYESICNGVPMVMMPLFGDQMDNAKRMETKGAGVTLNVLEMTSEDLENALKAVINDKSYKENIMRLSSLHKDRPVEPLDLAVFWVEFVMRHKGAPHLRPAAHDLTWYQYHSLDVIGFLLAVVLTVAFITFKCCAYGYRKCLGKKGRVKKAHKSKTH
In words: Recombinant enzyme kinetics of GL-V9 glucuronidation, rUGT1A9. The conditions noted are these: formation of 5-O-glucuronide GL-V9; rUGT1A9, protein 0.06 mg/mL, 1 h at 37 °C; mean ± SD, n = 3.

Series [1] can be described thus: Enzyme kinetics of GL-V9 glucuronidation in human liver microsomes (HLMs). As to conditions: human, liver microsomes, pH 7.4, formation of 5-O-glucuronide GL-V9, protein 0.075 mg/mL, mean ± SD, n = 3. On the procedure: as §1
Enzyme kinetics experiments were carried out in triplicate among five different species, including monkey, beagle dog, rat, mouse, and human. The reaction system and operations are as same as described in Section 4.3. The solutions of GL-V9 were selected over a range of concentrations (0.05, 0.2, 0.5, 1, 2, 5, 10, 20 μM). […]

By Vmax is commonly meant the top rate of the reaction or transport when substrate is in excess. Usually Km stands for the substrate concentration at which the rate is half of its maximum.

`COc1c(OCCCCN2CCCC2)cc(O)c2c(=O)cc(-c3ccccc3)oc12` [GL-V9]: the “Catalytic activity in the production of 5-O-glucuronide GL-V9” value on rUGT2B7 is reported as “did not show apparent catalytic activity”. The “Metabolism rate (glucuronidation)” value on rUGT1A6 is reported as “too low to be biologically relevant”. For the same molecule, the Vmax on rUGT1A9 is listed as 148.1 ± 2.56 pmol/min/mg. In addition, the Km at 1 h in series [1] worked out at 11.2 ± 0.66 µM.

The record behind these values is paper PMC6515479, “An Investigation on Glucuronidation Metabolite Identification, Isozyme Contribution, and Species Differences of GL-V9 In Vitro and In Vivo” (Molecules, 2019).
